Measurements published in patent EP0813412B1, “GEL FOR THE LOCAL HORMONOTHERAPY OF VAGINAL DRYNESS” (priority 1995, dated 1997).

Columns and labels:
[1] = Clinical trial, repeated vaginal application for 13 days: clinical and biological tolerance; assay type: in vivo, femme; settings: 10 µg vaginal, repeated for 13 days
Source text: Ces événements d'intensité mineure n'ont pas empêché la poursuite de l'étude. La tolérance biologique a été excellente. Aucune anomalie ayant une signification clinique n'a été rapportée.

[2] = assay type: in vivo, femme
Experimental: Une première solution consiste à réduire la teneur en principe actif, typiquement à des doses de 5 µg ou même 2,5 µg par application unitaire.

[3] = tested on: récepteurs à haute affinité pour l'estradiol au niveau de l'épithélium vaginal; settings: estrogen receptors; cited from earlier work
[4] = 10 µg, free micronised form in gel, single dose

Compound: C[C@]12CC[C@@H]3c4ccc(O)cc4CC[C@H]3[C@@H]1CC[C@@H]2O [17β-estradiol]
- tolérance biologique [1]: excellente
- tolérance clinique ([1]; sixteen subjects, free micronised form in gel): excellente pour treize sujets sur seize
- effets indésirables (céphalées, épisodes de vomissements et bouffées de chaleur) ([1]; sixteen subjects, minor intensity): Trois sujets ont signalé des effets indésirables
- surface sous la courbe ([2]; 10 µg vaginal gel, steady state): comparable à celle obtenue après la première application
- pic plasmatique d'estradiol ([2]; 10 µg vaginal gel, steady state compared with first application): tend à être plus faible et retardé
- concentration plasmatique maximale du pic [2, 4]: du même ordre que le taux physiologique moyen observés la première semaine de la phase folliculaire chez la femme fertile
- time of the plasma peak (pic plasmatique) [2, 4]: une heure environ

Compound: C[C@]12CC[C@@H]3c4ccc(O)cc4CC[C@H]3[C@@H]1C[C@@H](O)[C@@H]2O [estriol]
- activity profile (agonist / antagonist) [3]: agoniste partiel, voire d'antagoniste
